Test results reported in patent US10125100B2, “Kinase inhibitors” (Respivert Limited, priority 2014, dated 2018).

How the values were obtained:
c-Src = c-Src (Homo sapiens (Human), UniProt P12931); assay: c-Src enzyme inhibition, Z-LYTE FRET; format: biochemical
Summary of the method: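 Z-LYTE FRET peptide phosphorylation read as donor coumarin over acceptor fluorescein ratio after 1 hr protease development. Compounds (1–0.001 μg/mL) preincubated 2 hr at RT with enzyme; ATP solutions 60 μM for Syk, 800 μM for c-Src; kinase reaction 1 hr.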

GSK 3α = GSK 3α (Homo sapiens (Human), UniProt P49840); assay: GSK 3α enzyme inhibition (Method 2), Z-LYTE FRET; format: biochemical; conditions: read-out: IC50 Values for Enzyme Inhibition GSK3α
Chain of GSK 3α (P49840 whole entry): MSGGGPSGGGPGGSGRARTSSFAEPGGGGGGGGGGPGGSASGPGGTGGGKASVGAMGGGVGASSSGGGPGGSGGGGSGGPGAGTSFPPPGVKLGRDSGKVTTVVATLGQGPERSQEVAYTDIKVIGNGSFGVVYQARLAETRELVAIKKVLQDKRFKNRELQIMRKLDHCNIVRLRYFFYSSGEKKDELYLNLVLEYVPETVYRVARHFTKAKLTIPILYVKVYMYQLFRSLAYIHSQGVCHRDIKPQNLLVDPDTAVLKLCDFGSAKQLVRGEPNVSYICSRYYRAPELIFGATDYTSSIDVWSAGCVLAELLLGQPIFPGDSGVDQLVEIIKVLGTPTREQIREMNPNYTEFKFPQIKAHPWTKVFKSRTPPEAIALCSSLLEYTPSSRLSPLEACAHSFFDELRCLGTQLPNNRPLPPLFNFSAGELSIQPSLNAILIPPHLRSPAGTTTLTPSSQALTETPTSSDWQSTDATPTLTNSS
Experimental: The enzyme inhibitory activities of compounds disclosed herein are determined by FRET using synthetic peptides labelled with both donor and acceptor fluorophores (Z-LYTE, Invitrogen Ltd., Paisley, UK).
The following two assay variants can be used for determination of GSK 3α inhibition.
The inhibitory activities of compounds of the invention against the GSK 3α enzyme isoform (Invitrogen), are evaluated by determining the level of activation/phosphorylation of the target peptide. The GSK3-α protein (500 ng/mL, 2.5 μL) is mixed with the test compound (2.5 μL at either 4 μg/mL, 0.4 μg/mL, 0.04 μg/mL, or 0.004 μg/mL) for 2 hr at RT. The FRET peptide (8 μM, 2.5 μL), which is a phosphorylation target for GSK3α, and ATP (40 μM, 2.5 μL) are then added to the enzyme/compound mixture and the resulting mixture incubated for 1 hr. Development reagent (protease, 5 μL) is added for 1 hr prior to detection in a fluorescence microplate reader (Varioskan® Flash, ThermoFisher Scientific).
In all cases, the site-specific protease cleaves non-phosphorylated peptide only and eliminates the FRET signal. Phosphorylation levels of each reaction are calculated using the ratio of coumarin emission (donor) over fluorescein emission (acceptor), for which high ratios indicate high phosphorylation and low ratios indicate low phosphorylation levels.
This method follows the same steps as Method 1 above, but utilises a shorter period of mixing of the test compound (105 minutes instead of 2 hours) with the GSK3-α protein. In addition, the concentrations of test compound employed are either 10 μg/mL, 1 μg/mL, 0.1 μg/mL, or 0.01 μg/mL

mitosis in PBMCs = assay: (g) Cell mitosis assay; format: cell-based; conditions: Homo sapiens, PBMC, 5 μg/mL
Summary of the method: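 Healthy-donor PBMCs stimulated with 2% PHA for 48 hr, then exposed to test compounds at varying concentrations for 20 hr; demecolcine (0.1 μg/mL) added 2 hr before collection for metaphase arrest. Cells fixed/permeabilized, stained with anti-phospho-histone 3 and propidium iodide; mitotic cells counted by flow cytometry gating on lymphocytes.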

[1] = system: rheumatoid arthritis patients; conditions: cited from earlier work
Crohn's patients = conditions: transient, returning to baseline by week 8; cited from earlier work
Syk = Syk (Homo sapiens (Human), UniProt P43405); assay: Syk enzyme inhibition, Z-LYTE FRET; format: biochemical
Summary of the method: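 Syk or c-Src enzyme (3000 or 2000 ng/mL solutions) was preincubated 2 h at RT with compound solutions at 1, 0.1, 0.01 or 0.001 µg/mL. Z-LYTE FRET peptide (8 µM solution) and ATP (800 µM solution for c-Src, 60 µM for Syk) were then added for 1 h, followed by protease development for 1 h. Phosphorylation was read as the coumarin/fluorescein emission ratio.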

[2] = system: patients with severe Crohn's disease; conditions: over 8 weeks; cited from earlier work

Chain of c-Src (P12931 whole entry, looked up): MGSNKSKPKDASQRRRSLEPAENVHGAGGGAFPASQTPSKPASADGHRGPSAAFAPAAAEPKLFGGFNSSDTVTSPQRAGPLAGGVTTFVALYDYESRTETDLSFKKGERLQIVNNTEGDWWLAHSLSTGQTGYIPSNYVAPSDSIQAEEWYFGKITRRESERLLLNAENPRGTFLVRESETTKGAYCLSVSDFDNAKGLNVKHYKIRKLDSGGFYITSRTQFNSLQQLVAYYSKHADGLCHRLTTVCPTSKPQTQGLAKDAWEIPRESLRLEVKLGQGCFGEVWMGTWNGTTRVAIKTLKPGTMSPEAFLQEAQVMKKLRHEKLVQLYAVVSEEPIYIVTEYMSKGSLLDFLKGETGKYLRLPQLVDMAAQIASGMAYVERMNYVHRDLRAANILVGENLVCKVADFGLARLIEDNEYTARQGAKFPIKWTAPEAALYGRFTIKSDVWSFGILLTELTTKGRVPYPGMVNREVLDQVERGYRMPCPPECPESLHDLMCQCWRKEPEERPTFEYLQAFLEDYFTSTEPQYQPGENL

Row | SMILES | IC50 (c-Src) | IC50 (GSK 3α) | inhibition at 5 µg/mL (mitosis in PBMCs) | IC50 (Syk) | other results
1 | COc1cc(Nc2cc(Oc3ccc(NC(=O)Nc4cc(C(C)(C)C)cc(NS(C)(=O)=O)c4OC)c4ccccc34)ccn2)ccc1C(=O)NCCN1CCN(C)CC1 [17(a), 4-[[4-[[4-[[5-tert-butyl-3-(methanesulfonamido)-2-methoxy-phenyl]carbamoylamino]-1-naphthyl]oxy]-2-pyridyl]amino]-2-methoxy-N-[2-(4-methylpiperazin-1-yl)ethyl]benzamide] | 16 nM | 4000 nM | 75.6% | – | –
2 | COc1cc(Nc2ncc(F)c(Nc3ccc4c(n3)N(COP(=O)(O)O)C(=O)C(C)(C)O4)n2)cc(OC)c1OC [Fostamatinib] | – | – | – | – | clinical outcome [1]: improved clinical outcome; serum levels of IL-6 and MMP-3 [1]: reduced serum levels of IL-6 and MMP-3
3 | Cc1ccc(-n2nc(C(C)(C)C)cc2NC(=O)Nc2ccc(OCCN3CCOCC3)c3ccccc23)cc1 [BIRB796] | – | – | – | – | clinical benefit, C-reactive protein levels (Crohn's patients): improvement in C-reactive protein levels
4 | COc1cc(Nc2cc(Oc3ccc(NC(=O)Nc4cc(C(C)(C)C)cc(NS(C)(=O)=O)c4OC)c4ccccc34)ccn2)ccc1C(=O)NCCCN1CC[S+]([O-])CC1 [17(ag), 4-[[4-[[4-[[5-tert-butyl-3-(methanesulfonamido)-2-methoxy-phenyl]carbamoylamino]-1-naphthyl]oxy]-pyridyl]amino]-2-methoxy-N-[3-(1-oxo-1,4-thiazan-4-yl)propyl]benzamide] | 17 nM | 2740 nM | 51.8% | 105 nM | –
5 | COc1cc(Nc2cc(Oc3ccc(NC(=O)Nc4cc(C(C)(C)C)cc(NS(C)(=O)=O)c4OC)c4ccccc34)ccn2)ccc1C(=O)NCCCN1CCS(=O)(=O)CC1 [17(ah), 4-[[4-[[4-[[5-tert-butyl-3-(methanesulfonamido)-2-methoxy-phenyl]carbamoylamino]-1-naphthyl]oxy]-2-pyridyl]amino]-N-[3-(1,1-dioxo-1,4-thiazinan-4-yl)propyl]-2-methoxy-benzamide] | 20 nM | 9190 nM | 32.5% | 57 nM | –
6 | C/C(=N\N=C(N)N)c1cc(NC(=O)CCCCCCCCC(=O)Nc2cc(/C(C)=N/N=C(N)N)cc(/C(C)=N/N=C(N)N)c2)cc(/C(C)=N/N=C(N)N)c1.Cl.Cl.Cl.Cl [CNI-1493] | – | – | – | – | clinical score [2]: significant improvement in clinical score
